Where a SMILES comes first, the peptide text is derived from it. [ ]: non-standard residue; d: D form. Phe(4-NO2) = N[C@@H](Cc1ccc([N+](=O)[O-])cc1)C(=O)O; Nle = CCCC[C@H](N)C(=O)O; 2Abz = Nc1ccccc1C(=O)O
What was measured:
HIV protease = biological target: T1, HIV protease (HIV-1 M:B_ARV2/SF2, UniProt P03369); assay: HPLC HIV protease assay (cleavage of peptide substrates); format: biochemical, human immunodeficiency virus (HIV)
T1 construct: synthetic [Aba67,Aba95] homodimer (Schneider and Kent) or cloned enzyme from E. coli, interchangeably
Experimental: HPLC Assay. The HPLC HIV protease assay was conducted using either synthetic HIV protease [Schneider and Kent, Cell 54, 363-368 (1988)] in which the two Cys residues (Cys^67, Cys^95) were replaced by the isosteric α-aminobutyric acid to eliminate the complications of free sulfhydryl groups, or cloned material expressed in E. coli. In all cases examined, the cleavage patterns and inhibition results were identical. Synthetic HPLC-purified protease (0.05 mg/ml) was dissolved in assay buffer (20 mM phosphate, 20% glycerol, 0.1% CHAPS, pH 6.4). 20 μl of 0.1 mM substrate was mixed with 20 μl assay buffer and 10 μl of HIV protease stock were added and then incubated at 25° for the desired time. The reaction was stopped by the addition of 50 μl of 10% TFA. The sample was applied to a C18 HPLC column developed with 0.05% TFA for 5 min followed by a gradient of 0- 40% acetonitrile in 40 min. For inhibitor studies, 10 μl of the protease solution was preincubated at 25° for 10 min with the 20 μl of 0.1 mM inhibitor (dissolved in DMSO and diluted to 0.1 mM with assay buffer). Then 20 μl of test substrate, acetyl-Thr-Ile-Met-Met-Gln-Arg-NH2 or Abz-NF^* -6, was added in order to determine inhibition of cleavage. Reactions were stopped and cleavage rates were monitored by HPLC as above. […]
Fluorescence Assay. Fluorescence measurements on 96-well ELISA plates were made with the Titertek Fluoroskan II, version 3.1. […] Ten μl of a stock solution (0.1 mg/ml) of HIV protease was incubated with five different concentrations of Abz-NF^* -6 in a final volume of 100 μl at 37° C. with the increase in fluorescence monitored in each well every five minutes. […] A standard curve relating changes in fluorescent intensity to changes in concentration of product was used to convert fluorescence changes into molar velocities. […] Sixty μl of 10% TFA was added to stop the reaction and the amount of cleavage determined by HPLC. […] By the amount of substrate remaining, an estimated Ki allows appropriate choice of concentration ranges for the inhibitor for the fluorescence assay.

synthetic HIV protease = biological target: T2, synthetic HIV protease (HIV-1 M:B_ARV2/SF2, UniProt P03369); assay: Fluorescence assay, kinetic measurements of cleavage by synthetic HIV protease; format: biochemical, human immunodeficiency virus (HIV)
T2 construct: homodimer
Experimental: Fluorescence Assay. Fluorescence measurements on 96-well ELISA plates were made with the Titertek Fluoroskan II, version 3.1. An excitation filter of 355 nm and an emission filter of 430 nm was used. Ten μl of a stock solution (0.1 mg/ml) of HIV protease was incubated with five different concentrations of Abz-NF^* -6 in a final volume of 100 μl at 37° C. with the increase in fluorescence monitored in each well every five minutes. A stock solution of 1 mM Abz-NF^* -6 in DMSO was used. A standard curve relating changes in fluorescent intensity to changes in concentration of product was used to convert fluorescence changes into molar velocities. In order to predetermine the concentration range for Ki determination of inhibitors, it was found convenient to do a preliminary assay by HPLC. Twenty μl of 0.1 mM inhibitor in assay buffer (pH 6.4) and 10 μl of HIV protease (stock solution of 0.05 mg/ml) were preincubated for 5-10 min at 25° C. Twenty μl of 0.1 mM Abz-NF^* -6 was added and the reaction continued for 1 hour. Sixty μl of 10% TFA was added to stop the reaction and the amount of cleavage determined by HPLC. […] By the amount of substrate remaining, an estimated Ki allows appropriate choice of concentration ranges for the inhibitor for the fluorescence assay.
The chromogenic substrates of Nashed et al., Biochem. Biophys. Res. Commun. 163, 1079-1085 (1989), had Km 's estimated to be greater than […].

[1] = test system: purified HIV protease expressed in E. coli; details: estimated, Nashed et al.; cited from earlier work

For `CCCC[C@H](NC(=O)[C@@H](NC(=O)c1ccccc1N)[C@@H](C)CC)C(=O)N[C@@H](Cc1ccc([N+](=O)[O-])cc1)C(=O)N[C@@H](CCC(N)=O)C(=O)N[C@@H](CCCNC(=N)N)C(N)=O` [Abz-Ile-Nle-Phe(p-NO2)-Gln-Arg-NH2] (H-[2Abz]I[Nle][Phe(4-NO2)]QR-NH2), the cleavage efficiency (HIV protease; analog with the Abz group at position P3, compared with Abz-NF*-6) was “dramatically reduced”.
For `CCCC[C@H](NC(=O)[C@@H](NC(=O)[C@@H](NC(=O)c1ccccc1N)[C@@H](C)O)[C@@H](C)CC)C(=O)N[C@@H](Cc1ccc([N+](=O)[O-])cc1)C(=O)N[C@@H](CCC(N)=O)C(=O)N[C@@H](CCCNC(=N)N)C(N)=O` [Abz-NF^* -6, Abz-Thr-Ile-Nle-Phe(p-NO2)-Gln-Arg-NH2] (H-[2Abz]TI[Nle][Phe(4-NO2)]QR-NH2), the “amount of cleavage determined by HPLC” value (HIV protease; 0.1 mM substrate, 1 hour, in the absence of inhibition) was “complete cleavage”, the Km (synthetic HIV protease; Lineweaver-Burk plot, velocities from the linear phase) was 110 µM and the Kcat (synthetic HIV protease; synthetic HIV protease) was 2.9 s⁻¹. For the same molecule, the Vmax (synthetic HIV protease; synthetic HIV protease) was 3.45 mM-mil^-1 and the “ratio Kcat /Km” value (synthetic HIV protease; synthetic HIV protease) was 26,364 M^-1 s^-1.
For `CCCC[C@H](NC(=O)[C@@H](NC(=O)[C@@H](NC(C)=O)[C@@H](C)O)[C@@H](C)CC)C(=O)N[C@@H](Cc1ccc([N+](=O)[O-])cc1)C(=O)N[C@@H](CCC(N)=O)C(=O)N[C@@H](CCCNC(=N)N)C(N)=O` [Ac-Thr-Ile-Nle-Phe(p-NO2)-Gln-Arg-NH2] (Ac-TI[Nle][Phe(4-NO2)]QR-NH2), the “cleavage under the conditions of HPLC assay” value (HIV protease; incubation times of one hour) was “showed cleavage”.
In the case of `CC(C)C[C@H](NC(=O)[C@@H]1CCCN1C(=O)[C@H](Cc1ccc([N+](=O)[O-])cc1)NC(=O)[C@H](C)NC(=O)[C@H](CCC(N)=O)NC(=O)[C@H](Cc1ccccc1)NC(=O)[C@@H](N)[C@@H](C)O)C(=O)N[C@@H](CCCNC(=N)N)C(=O)N[C@@H](C)C(=O)O` [H-Thr-Phe-Gln-Ala-Phe(p-NO2)-Pro-Leu-Arg-Ala-OH] (H-TFQA[Phe(4-NO2)]PLRA-OH), the “ratio Kcat /Km” value [1] is listed as ~23,000 M^-1 s^-1.
